From PubChem BioAssay (NCI) come the findings set out here.

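Briefly, cells in 96-well plates were exposed to five compound concentrations for 48 h, and endpoints were estimated by linear interpolation. GI50 is the concentration that inhibits growth by half. TGI denotes the concentration required for complete inhibition of growth.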

Some test systems named below: A498 renal; ACHN renal; HCT-15 colon; MOLT-4 leukemia; NCI-H226 lung; RXF 393 renal; SN12C renal; SNB-19 CNS; MDA-MB-435; NCI/ADR-RES ovarian.
Assay in all cases: NCI anticancer screen, dose series, 48 h

Take `CC(C)(C)C(=CS(=O)/N=C/c1ccccc1)C(C)(C)C` (stereo unspecified): the TGI is greater than 100 µM with A498 renal; greater than 100 µM with ACHN renal; 80.7 µM in the assay with HCT-15 colon; 54.3 µM in the assay on MOLT-4 leukemia; greater than 100 µM in the assay on NCI-H226 lung; 74.5 µM with RXF 393 renal. The TGI in the assay on SN12C renal is 51.7 µM; in the assay with SNB-19 CNS it was greater than 100 µM.

On to `CCCC(=O)N[C@H]1C2C3CC4C5CC(C42)C1(C)C53` (stereo partly specified), for which the TGI in the assay on A498 renal, with ACHN renal, in the assay on HCT-15 colon, in the assay with MOLT-4 leukemia, in the assay on NCI-H226 lung and in the assay with RXF 393 renal was greater than 100 µM in each case. The TGI in the assay on SN12C renal and in the assay with SNB-19 CNS was greater than 100 µM each time.

For the compound `CC(C)CCCC(C)[C@H]1CCC2[C@@H]3CCC4Nc5c(cnn5-c5ccccc5)C[C@]4(C)C3CC[C@@]21C` (stereo partly specified), the TGI in the assay with A498 renal is greater than 100 µM; with ACHN renal it was greater than 100 µM; in the assay with HCT-15 colon it was greater than 100 µM; in the assay on MOLT-4 leukemia, greater than 100 µM; with NCI-H226 lung it was greater than 100 µM; in the assay on RXF 393 renal, 8.8 µM. Moreover, the TGI with SN12C renal is greater than 100 µM; with SNB-19 CNS, 63.1 µM.

For `C[Si](C)(C)/C=C\CCO`, the TGI in the assay with A498 renal, in the assay with ACHN renal, in the assay with HCT-15 colon, in the assay on MOLT-4 leukemia, in the assay on RXF 393 renal and in the assay on SN12C renal was greater than 100 µM in each case. Moreover, in the assay on SNB-19 CNS, the TGI is greater than 100 µM.

With `CC(=O)O[C@]1(C)OC(=O)[C@@H](CC(C)C)N1[N+](=O)[O-]`, the TGI in the assay with A498 renal, with ACHN renal, in the assay on HCT-15 colon, in the assay on MOLT-4 leukemia, in the assay on NCI-H226 lung and in the assay on RXF 393 renal was greater than 100 µM in each case. Besides, the TGI with SN12C renal and in the assay on SNB-19 CNS was greater than 100 µM throughout.

Turning to `CC(=O)[O-].[Mn+3].[O-]c1ccccc1C=NCCNCCN=Cc1ccccc1[O-]`, the GI50 in the assay on ACHN renal, in the assay with HCT-15 colon, in the assay on MOLT-4 leukemia, in the assay with NCI-H226 lung, in the assay with RXF 393 renal and in the assay with SN12C renal was greater than 100 µM throughout. The GI50 in the assay with SNB-19 CNS is greater than 100 µM. Moreover, the TGI in the assay on ACHN renal, in the assay with HCT-15 colon, with MOLT-4 leukemia, in the assay on NCI-H226 lung, in the assay with RXF 393 renal and in the assay on SN12C renal was greater than 100 µM in each case. The compound also registered a TGI in the assay on SNB-19 CNS greater than 100 µM.

Take `Cc1nc(Nc2ccccn2)sc1C(=O)/C=C/c1ccc(Cl)cc1`: the GI50 with A498 renal is 0.143 µM; in the assay with ACHN renal, 0.559 µM; in the assay on HCT-15 colon, 0.355 µM; with MDA-MB-435 it was 0.201 µM; in the assay on MOLT-4 leukemia, 0.592 µM; in the assay with NCI-H226 lung, 1.09 µM. Also, the results for the GI50 in the assay with NCI/ADR-RES ovarian, with SN12C renal and in the assay with SNB-19 CNS were 0.34 µM, 0.547 µM and 0.556 µM, respectively. Further, the TGI is 0.626 µM in the assay with A498 renal; 31 µM with ACHN renal; greater than 100 µM with HCT-15 colon; 0.515 µM in the assay on MDA-MB-435; greater than 100 µM in the assay with MOLT-4 leukemia; 26 µM in the assay with NCI-H226 lung. The TGI with NCI/ADR-RES ovarian was greater than 100 µM; in the assay with SN12C renal, greater than 47.4 µM; with SNB-19 CNS it was greater than 100 µM.

As for `O=c1ncccn1C1OC(CO)C(O)C1O` (stereo unspecified), the TGI in the assay on A498 renal, in the assay on ACHN renal, in the assay on HCT-15 colon, with NCI-H226 lung, with RXF 393 renal and with SN12C renal was greater than 100 µM in each case. In addition, the TGI with SNB-19 CNS was greater than 100 µM.

With `CN1CCc2c1nc(-c1ccc(Cl)cc1)c1c2N(C)CC1`, the TGI in the assay with A498 renal was 62.6 µM; in the assay with ACHN renal it was 55.6 µM; in the assay with HCT-15 colon it was greater than 100 µM; in the assay on MOLT-4 leukemia, 31.4 µM; with RXF 393 renal, 43.9 µM; in the assay with SN12C renal, 71.1 µM. The compound also had a TGI in the assay with SNB-19 CNS greater than 100 µM.

On to `CC(=O)OCC(=O)[C@@]12OC(C)(C)O[C@@H]1C[C@H]1[C@@H]3CC(C=O)=C4C=C(OCCCl)CC[C@]4(C)[C@@]3(F)[C@@H](O)C[C@@]12C`, for which the TGI was 57.9 µM in the assay on A498 renal; greater than 100 µM in the assay with ACHN renal; greater than 100 µM in the assay on HCT-15 colon; greater than 100 µM with MOLT-4 leukemia; 64.8 µM in the assay on NCI-H226 lung; 21.6 µM with RXF 393 renal. The TGI with SN12C renal and with SNB-19 CNS was greater than 100 µM in each case.

For `NNC(=O)C(=O)N/N=C1\CCC(=O)CC1C(=O)CCC(=O)Nc1ccc(Cl)cc1` (stereo unspecified), the TGI in the assay with A498 renal, in the assay with ACHN renal, in the assay with HCT-15 colon, in the assay with MOLT-4 leukemia, with NCI-H226 lung and with RXF 393 renal was greater than 100 µM each time. Moreover, the TGI in the assay with SN12C renal and with SNB-19 CNS was greater than 100 µM throughout.

As for `N.N.N.N.N.O=[N+]([O-])[O-].[Co+3].[O-][Cl+3]([O-])([O-])[O-]`, the GI50 in the assay on A498 renal, in the assay on ACHN renal, in the assay with HCT-15 colon, in the assay on MOLT-4 leukemia, in the assay on SN12C renal and with SNB-19 CNS was greater than 100 µM each time. Also, the TGI in the assay on A498 renal, in the assay on ACHN renal, with HCT-15 colon, in the assay with MOLT-4 leukemia, in the assay with SN12C renal and with SNB-19 CNS was greater than 100 µM in each case.

For the compound `C[C@]12CC[C@H](O)CC1=CC[C@@H]1C2CC[C@]2(C)Nc3c(cnn3-c3ccccc3)CC12` (stereo partly specified), the TGI with A498 renal is 29.7 µM; with ACHN renal, 29.7 µM; in the assay with HCT-15 colon it was 18.6 µM; in the assay with MOLT-4 leukemia, 5.15 µM; in the assay on NCI-H226 lung, 56.1 µM; with RXF 393 renal, 4.01 µM.

Consider `N/N=C1\C(=O)N(c2ccc(Cl)cc2Cl)C(=O)C(=O)C1c1nc2ccccc2o1` (stereo unspecified), for which the TGI in the assay on A498 renal, in the assay on ACHN renal, with HCT-15 colon, with MOLT-4 leukemia, in the assay on NCI-H226 lung and with SN12C renal was greater than 100 µM in each case. In the assay on SNB-19 CNS, this compound displayed a TGI greater than 100 µM.
